Like-named read-outs stand apart in the source and are kept apart here.
Legend:
[1] = target: MDM2-p53 interaction (in vitro translated MDM2) (Homo sapiens (Human), UniProt Q00987); test: MDM2-p53 interaction 96-well plate binding assay (ELISA); conditions: for MDM2 % inhibition at 0.0010: at 0.0010 μM; for MDM2 % inhibition at 0.10: at 0.10 μM
SJSA-1 = test: Protocol B: CellTiter-Glo cell viability assay; conditions: read-out: SJSA1 IC50 (μM) (Protocol B)

Chain of MDM2-p53 interaction (in vitro translated MDM2) (Q00987 whole entry): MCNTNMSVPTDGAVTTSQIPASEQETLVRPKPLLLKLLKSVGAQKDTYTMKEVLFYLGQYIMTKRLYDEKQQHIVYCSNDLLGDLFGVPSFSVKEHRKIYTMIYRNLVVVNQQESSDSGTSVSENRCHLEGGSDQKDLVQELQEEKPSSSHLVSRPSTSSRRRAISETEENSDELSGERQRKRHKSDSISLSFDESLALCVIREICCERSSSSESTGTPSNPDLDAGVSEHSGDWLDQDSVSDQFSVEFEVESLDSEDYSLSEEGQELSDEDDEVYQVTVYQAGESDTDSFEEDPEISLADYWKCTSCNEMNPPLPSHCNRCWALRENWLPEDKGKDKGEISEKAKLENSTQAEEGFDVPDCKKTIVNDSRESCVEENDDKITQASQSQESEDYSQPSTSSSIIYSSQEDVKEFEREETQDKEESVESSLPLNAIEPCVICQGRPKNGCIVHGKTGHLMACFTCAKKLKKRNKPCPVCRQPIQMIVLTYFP

Row | Compound | MDM2 % inhibition at 0.0010 [1] [%@0.0010] | IC50 (SJSA-1; Protocol B) [µM] | other results
1 | 1-({[(1R)-1-(4-chlorophenyl)-2-[(5-chloropyrimidin-2-yl)methyl]-7-fluoro-5-[1-(4-fluoropiperidin-4-yl)-1-hydroxypropyl]-3-oxo-2,3-dihydro-1H-isoindol-1-yl]oxy}methyl)cyclopropane-1-carbonitrile [Example 545] | 94 | – | –
2 | 1-({[(1R)-1-(4-chlorophenyl)-2-[(5-chloropyrimidin-2-yl)methyl]-7-fluoro-5-[1-hydroxy-1-(1-methyl-1H-pyrazol-4-yl)ethyl]-3-oxo-2,3-dihydro-1H-isoindol-1-yl]oxy}methyl)cyclopropane-1-carboxamide [Example 214] | – | 0.22 | –
3 | 1-({[(1R)-1-(4-chlorophenyl)-2-[(5-chloropyrimidin-2-yl)methyl]-7-fluoro-5-[2-hydroxy-1-(piperazin-1-yl)butan-2-yl]-3-oxo-2,3-dihydro-1H-isoindol-1-yl]oxy}methyl)cyclopropane-1-carbonitrile [Example 536] | 64 | – | –
4 | 1-({[(1R)-2-[(4-chloro-2-methanesulfonylphenyl)methyl]-1-(4-chlorophenyl)-7-fluoro-5-[1-hydroxy-1-(1-methyl-1H-pyrazol-4-yl)ethyl]-3-oxo-2,3-dihydro-1H-isoindol-1-yl]oxy}methyl)cyclopropane-1-carboxamide [Example 74] | – | – | IC50 (SJSA-1; SJSA-1, CellTiter-Glo, 72 hrs): 1 µM
5 | 2-{[(1R)-1-(4-chlorophenyl)-1-[(1-cyanocyclopropyl)methoxy]-7-fluoro-5-[1-hydroxy-1-(1-methyl-1H-imidazol-4-yl)propyl]-3-oxo-2,3-dihydro-1H-isoindol-2-yl]methyl}pyrimidine-5-carbonitrile [Example 463] | – | – | MDM2 % inhibition at 0.10 [1]: 73%@0.10
6 | 2-{[(1R)-1-(4-chlorophenyl)-7-fluoro-5-[(1R)-1-(4-fluorooxan-4-yl)-1-hydroxypropyl]-3-oxo-1-[cis-3-hydroxycyclobutoxy]-2,3-dihydro-1H-isoindol-2-yl]methyl}pyrimidine-5-carbonitrile [Example 505] | 60 | – | –
7 | 4-{[(1R)-1-(4-chlorophenyl)-7-fluoro-5-[1-hydroxy-1-(1-methyl-1H-imidazol-4-yl)propyl]-3-oxo-1-[(3S)-oxolan-3-yloxy]-2,3-dihydro-1H-isoindol-2-yl]methyl}-3-(hydroxymethyl)benzonitrile [Example 92] | – | – | IC50 (SJSA-1; SJSA-1, CellTiter-Glo, 72 hrs): 0.084 µM
8 | 6-{[1-(4-chlorophenyl)-7-fluoro-5-[1-hydroxy-1-(1-methyl-1H-pyrazol-4-yl)ethyl]-3-oxo-1-[cis-3-hydroxycyclobutoxy]-2,3-dihydro-1H-isoindol-2-yl]methyl}pyridine-3-carbonitrile [Example 355] | – | 4.7 | –
9 | 6-{[1-(4-chlorophenyl)-7-fluoro-5-[1-hydroxy-1-(1-methyl-1H-pyrazol-4-yl)ethyl]-3-oxo-1-[cis-3-hydroxycyclobutoxy]-2,3-dihydro-1H-isoindol-2-yl]methyl}pyridine-3-carbonitrile [Example 356] | – | 0.96 | –
10 | 6-{[(1R)-1-(4-chlorophenyl)-1-[(1-cyanocyclopropyl)methoxy]-7-fluoro-5-[1-hydroxy-1-(1-methyl-1H-pyrazol-4-yl)ethyl]-3-oxo-2,3-dihydro-1H-isoindol-2-yl]methyl}pyridine-3-carbonitrile [Example 211] | – | 0.36 | –
11 | 6-{[(1R)-1-(4-chlorophenyl)-7-fluoro-5-[1-hydroxy-1-(1-methyl-1H-imidazol-4-yl)butyl]-3-oxo-1-[(3S)-oxolan-3-yloxy]-2,3-dihydro-1H-isoindol-2-yl]methyl}pyridine-3-carbonitrile [Example 473] | – | – | MDM2 % inhibition at 0.10 [1]: 44%@0.10
12 | 6-{[(1R)-1-(4-chlorophenyl)-7-fluoro-5-[1-hydroxy-1-(1-methyl-1H-pyrazol-4-yl)propyl]-3-oxo-1-[(3S)-oxolan-3-yloxy]-2,3-dihydro-1H-isoindol-2-yl]methyl}pyridine-3-carbonitrile [Example 358] | – | – | MDM2 % at concentration [1]: 74%@0.0010
13 | CCC(O)(c1cc(F)c2c(c1)C(=O)N(Cc1ncc(C#N)cn1)[C@@]2(O[C@H]1CCOC1)c1ccc(Cl)cc1)c1cn(C)cn1 (stereo partly drawn) [Example 369, 2-{[(1R)-1-(4-chlorophenyl)-7-fluoro-5-[1-hydroxy-1-(1-methyl-1H-imidazol-4-yl)propyl]-3-oxo-1-[(3S)-oxolan-3-yloxy]-2,3-dihydro-1H-isoindol-2-yl]methyl}pyrimidine-5-carbonitrile] | – | 0.062 | –
14 | [2H]C([2H])([2H])C1(C([2H])([2H])O[C@]2(c3ccc(Cl)cc3)c3c(F)cc(C(O)(CC)c4cn(C)cn4)cc3C(=O)N2Cc2ccc(C#N)cn2)CC1 (stereo partly drawn) [Example 439, 6-{[(1R)-1-(4-chlorophenyl)-7-fluoro-1-({1-[hydroxy(^2H2)methyl]cyclopropyl}(^2H2)methoxy)-5-[1-hydroxy-1-(1-methyl-1H-imidazol-4-yl)propyl]-3-oxo-2,3-dihydro-1H-isoindol-2-yl]methyl}pyridine-3-carbonitrile] | – | 0.03 | –
15 | (3R)-2-[(5-chloro-3-hydroxypyridin-2-yl)methyl]-3-(4-chlorophenyl)-4-fluoro-6-[1-hydroxy-1-(1-methyl-1H-imidazol-4-yl)propyl]-3-[cis-3-hydroxycyclobutoxy]-2,3-dihydro-1H-isoindol-1-one [Example 488] | – | – | MDM2 % inhibition at 0.10 [1]: 56%@0.10
16 | (3R)-3-(4-Chlorophenyl)-2-[(1R)-1-(5-chloropyridin-2-yl)-2,3-dihydroxypropyl]-4-fluoro-3-[(1-hydroxycyclopropyl)methoxy]-6-(2-hydroxypropan-2-yl)-2,3-dihydro-1H-isoindol-1-one [Example 331] | – | – | MDM2 % at concentration ([1]; at 0.030 μM): 49%@0.030
17 | (3R)-3-(4-chlorophenyl)-2-[(5-chloropyrimidin-2-yl)methyl]-4-fluoro-6-[(1R)-1-hydroxy-1-(1-methylpiperidin-4-yl)propyl]-3-[(3S)-oxolan-3-yloxy]-2,3-dihydro-1H-isoindol-1-one [Example 567] | – | – | MDM2 % inhibition at 0.10 [1]: 57%@0.10
18 | (3R)-3-(4-chlorophenyl)-2-[(5-chloropyrimidin-2-yl)methyl]-4-fluoro-6-[(1S)-1-hydroxy-1-(1-methylpiperidin-4-yl)propyl]-3-[cis-3-hydroxycyclobutoxy]-2,3-dihydro-1H-isoindol-1-one [Example 560] | 30 | – | –
19 | (3R)-3-(4-chlorophenyl)-4-fluoro-6-[1-hydroxy-1-(1-methyl-1H-pyrazol-4-yl)ethyl]-3-[(1-hydroxycyclopropyl)methoxy]-2-[(5-methoxypyridin-2-yl)methyl]-2,3-dihydro-1H-isoindol-1-one [Example 228] | – | – | MDM2 % at concentration ([1]; at 0.010 μM): 61%@0.010

The next lines start with results.

Row | MDM2 % inhibition at 0.0010 [1] [%@0.0010] | IC50 (SJSA-1; Protocol B) [µM] | Compound | other results
20 | – | 0.76 | 1-({[(1R)-1-(4-chlorophenyl)-2-[(5-chloropyrimidin-2-yl)methyl]-7-fluoro-5-[2-hydroxy-1-(piperazin-1-yl)butan-2-yl]-3-oxo-2,3-dihydro-1H-isoindol-1-yl]oxy}methyl)cyclopropane-1-carbonitrile [Example 537] | –
21 | – | 0.45 | 1-({[(1R)-1-(4-chlorophenyl)-7-fluoro-2-[(5-fluoropyridin-2-yl)methyl]-5-[1-hydroxy-1-(1-methyl-1H-pyrazol-4-yl)ethyl]-3-oxo-2,3-dihydro-1H-isoindol-1-yl]oxy}methyl)cyclopropane-1-carboxamide [Example 209] | –
22 | 76 | – | 2-[(5-chloro-3-hydroxypyridin-2-yl)methyl]-3-(4-chlorophenyl)-4-fluoro-6-[(1S)-1-hydroxy-1-(1-methylpiperidin-4-yl)propyl]-3-[(3S)-oxolan-3-yloxy]-2,3-dihydro-1H-isoindol-1-one [Example 568] | –
23 | – | 4.9 | 2-{[(1R)-1-(4-chlorophenyl)-7-fluoro-5-[1-hydroxy-1-(1-methyl-1H-imidazol-4-yl)propyl]-3-oxo-1-{[trans-3-hydroxycyclobutyl]methoxy}-2,3-dihydro-1H-isoindol-2-yl]methyl}pyrimidine-5-carbonitrile [Example 484] | –
24 | 87 | – | 2-{[(1R)-1-(4-chlorophenyl)-7-fluoro-5-{1-hydroxy-1-[trans-4-hydroxycyclohexyl]propyl}-3-oxo-1-[(3S)-oxolan-3-yloxy]-2,3-dihydro-1H-isoindol-2-yl]methyl}pyrimidine-5-carbonitrile [Example 503] | –
25 | – | 0.64 | 5-chloro-2-{[(1R)-1-(4-chlorophenyl)-7-fluoro-5-[(1R)-1-(4-fluorooxan-4-yl)-1-hydroxypropyl]-1-methoxy-3-oxo-2,3-dihydro-1H-isoindol-2-yl]methyl}pyridine-3-carboxylic acid (tris(hydroxymethyl)aminomethane salt) [Example 514] | –
26 | 86 | – | 6-{[(1R)-1-(4-chlorophenyl)-7-fluoro-5-[1-(4-fluoropiperidin-4-yl)-1-hydroxypropyl]-3-oxo-1-[(3S)-oxolan-3-yloxy]-2,3-dihydro-1H-isoindol-2-yl]methyl}pyridine-3-carbonitrile [Example 546] | –
27 | – | 0.41 | (3R)-2-[(5-chloro-1-oxo-1λ^5-pyridin-2-yl)methyl]-3-(4-chlorophenyl)-4-fluoro-6-[1-hydroxy-1-(1-methyl-1H-pyrazol-4-yl)ethyl]-3-[(1-hydroxycyclopropyl)methoxy]-2,3-dihydro-1H-isoindol-1-one [Example 409] | –
28 | 85 | – | (3R)-3-(4-chlorophenyl)-2-[(5-chloropyridin-2-yl)methyl]-4-fluoro-6-[1-(4-fluoropiperidin-4-yl)-1-hydroxypropyl]-3-[(2R)-2-hydroxypropoxy]-2,3-dihydro-1H-isoindol-1-one [Example 549] | –
29 | 72 | – | (3R)-3-(4-chlorophenyl)-2-[(5-chloropyrimidin-2-yl)methyl]-4-fluoro-6-{1-hydroxy-1-[trans-4-hydroxycyclohexyl]propyl}-3-methoxy-2,3-dihydro-1H-isoindol-1-one [Example 511] | –
